32 compounds from ChEMBL document CHEMBL6109087, “Design and synthesis of azole derivatives of echinocystic acid as α-glucosidase inhibitors with hypoglycemic activity” (Eur J Med Chem, 2025) can be followed below.

Calls of active or inactive are those of the source. No cut-off for these calls is given here. Where only a bound is given, the exact number is not on record here.

In series [1] the target is T1, Alpha-glucosidase (Saccharomyces cerevisiae S288c, UniProt P53341+P38158+P07265). Briefly: Inhibition of alpha-glucosidase using P-nitro phenyl-alpha-D-glucopyranoside as substrate assessed as substrate hydrolysis. It is filed as protein assay.
For series [2], the target named is T1, Alpha-glucosidase. Briefly: Inhibition of alpha-glucosidase using 4-Nitrophenyl-[…]-D-glucopyranoside (pNPG) as substrate. Format: protein assay.
Series [3] deals with Alpha-glucosidase (Saccharomyces cerevisiae S288c) (UniProt P53341+P38158+P07265). Briefly: Inhibition of alpha-glucosidase using 4-Nitrophenyl-[…]-D-glucopyranoside (pNPG) as substrate assessed as inhibition rate at 30 uM relative control. Format: protein assay.
Series [4] can be described thus: Cytotoxicity against human LO2 cells assessed as cell viability measured after 24 hrs by MTT assay. Format: toxicity, cell-based, L02. Background: Tetrazolium assays rely on reduction of a dye to a coloured formazan, in cell work by metabolically active cells.
Series [5] deals with alpha-glucosidase (unknown origin). Briefly: Selectivity index, ratio of CC50 for Cytotoxicity against human LO2 cells to IC50 for alpha-glucosidase (unknown origin). It is filed as toxicity, cell-based, L02. The settings on record: read-out: Selectivity Index.
In series [6] the target is T1, Alpha-glucosidase. Briefly: Binding affinity to alpha-glucosidase assessed as inhibition constant. Format: protein assay.
Series [7] concerns the target T1, Alpha-glucosidase. Briefly: Inhibition of alpha-glucosidase. It is filed as protein assay.
In the next series the test system is Mus musculus. Briefly: Reduction in blood glucose concentration in male C57BL/6J mouse assessed as peak blood glucose and glucose AUC at 100 mg/kg preadministered for 30 mins via gavage followed by treated 2 g/Kg of sucrose and measured up to 120 mins post sucrose challenge by sucrose loading test. Format: functional, organism-based. To be noted: time 150.0 min.

Broadly, the IC50 is the concentration that inhibits the measured activity by half. As to `COc1ccc(NC(=O)Cn2cc(COc3cc(O)c4c(=O)c5ccc(OC)cc5oc4c3)nn2)c(OC)c1`, the IC50 on Alpha-glucosidase [1] is 2.06 µM.
By inhibition is commonly meant the drop in the measured response relative to a control, in per cent. Consider `CC1(C)CC[C@]2(C(=O)OCCn3ncn(-c4ccc(F)cc4)c3=O)[C@H](O)C[C@]3(C)C(=CC[C@@H]4[C@@]5(C)CC[C@H](O)C(C)(C)[C@@H]5CC[C@]43C)[C@@H]2C1`, for which the IC50 at Alpha-glucosidase [2] came to 29.32 µM. The inhibition in series [3] turned out to be 56.9%.
Taken in the same sequence, the figures for `CC1(C)CC[C@]2(C(=O)NCc3cn(-c4ccc(F)cc4)nn3)[C@H](O)C[C@]3(C)C(=CC[C@@H]4[C@@]5(C)CC[C@H](O)C(C)(C)[C@@H]5CC[C@]43C)[C@@H]2C1` were more than 30 µM and 47.7%.
The corresponding values for `CC1(C)CC[C@]2(C(=O)OCc3nc(-c4ccc(Cn5cncn5)cc4)no3)[C@H](O)C[C@]3(C)C(=CC[C@@H]4[C@@]5(C)CC[C@H](O)C(C)(C)[C@@H]5CC[C@]43C)[C@@H]2C1` are more than 30 µM and 10.5%.
At Alpha-glucosidase [2], `CC1(C)CC[C@]2(C(=O)OCc3nnc(-c4ccccc4)o3)[C@H](O)C[C@]3(C)C(=CC[C@@H]4[C@@]5(C)CC[C@H](O)C(C)(C)[C@@H]5CC[C@]43C)[C@@H]2C1` gave an IC50 of 19.36 µM. Moreover, the inhibition in series [3] came to 57.2%.
The corresponding values for `COc1ccc(-c2nnc(COC(=O)[C@]34CCC(C)(C)C[C@H]3C3=CC[C@@H]5[C@@]6(C)CC[C@H](O)C(C)(C)[C@@H]6CC[C@@]5(C)[C@]3(C)C[C@H]4O)o2)cc1` are 22.28 µM and 56.5%.
The corresponding values for `CC1(C)CC[C@]2(C(=O)OCC(=O)NCc3cn(-c4ccc(F)cc4)nn3)[C@H](O)C[C@]3(C)C(=CC[C@@H]4[C@@]5(C)CC[C@H](O)C(C)(C)[C@@H]5CC[C@]43C)[C@@H]2C1` are 18.52 µM and 61.5%.
Taken in the same sequence, the figures for `CC1(C)CC[C@]2(C(=O)NCc3cn(-c4ccccc4)nn3)[C@H](O)C[C@]3(C)C(=CC[C@@H]4[C@@]5(C)CC[C@H](O)C(C)(C)[C@@H]5CC[C@]43C)[C@@H]2C1` were 22.72 µM and 55.9%.
A word on the CC50: it is the concentration at which the toxic effect on the cells reaches its halfway point. Regarding `CC1(C)CC[C@]2(C(=O)OCCn3ncn(-c4ccc(Cl)c(Cl)c4)c3=O)[C@H](O)C[C@]3(C)C(=CC[C@@H]4[C@@]5(C)CC[C@H](O)C(C)(C)[C@@H]5CC[C@]43C)[C@@H]2C1`, the cytotoxic concentration (CC50) at 24 h in series [4] worked out at 66.8 µM. At Alpha-glucosidase [2], this compound returned a 50% inhibitory concentration (IC50) of 3.42 µM. In series [5], the selectivity ratio was 19.5. Also, in series [3], the inhibition was found to be 80.3%.
At Alpha-glucosidase [2], `COc1ccc(-n2cc(CNC(=O)COC(=O)[C@]34CCC(C)(C)C[C@H]3C3=CC[C@@H]5[C@@]6(C)CC[C@H](O)C(C)(C)[C@@H]6CC[C@@]5(C)[C@]3(C)C[C@H]4O)nn2)cc1` came in with an IC50 of more than 30 µM. Further, the inhibition in series [3] came to 51.4%.
For the compound `CC1(C)CC[C@]2(C(=O)OCc3nc(-c4ccc(Cl)cc4)no3)[C@H](O)C[C@]3(C)C(=CC[C@@H]4[C@@]5(C)CC[C@H](O)C(C)(C)[C@@H]5CC[C@]43C)[C@@H]2C1`, the CC50 at 24 h in series [4] is 108 µM. This compound registered an IC50 on Alpha-glucosidase [2] of 4.11 µM. Further, the selectivity ratio in series [5] worked out at 26.4. The inhibition in series [3] was 85.1%.
For `CC1(C)CC[C@]2(C(=O)OCCn3ncn(-c4ccccc4)c3=O)[C@H](O)C[C@]3(C)C(=CC[C@@H]4[C@@]5(C)CC[C@H](O)C(C)(C)[C@@H]5CC[C@]43C)[C@@H]2C1`, the half-inhibitory concentration (IC50) at Alpha-glucosidase [2] was more than 30 µM. Moreover, the inhibition in series [3] stood at 46.1%.
Turning to `CC1(C)CC[C@]2(C(=O)OCc3nc(-c4ccc(F)cc4)no3)[C@H](O)C[C@]3(C)C(=CC[C@@H]4[C@@]5(C)CC[C@H](O)C(C)(C)[C@@H]5CC[C@]43C)[C@@H]2C1`, the IC50 against Alpha-glucosidase [2] turned out to be 16.01 µM. Also, the inhibition in series [3] is 64.6%.
Take `COc1cc(-c2nnc(COC(=O)[C@]34CCC(C)(C)C[C@H]3C3=CC[C@@H]5[C@@]6(C)CC[C@H](O)C(C)(C)[C@@H]6CC[C@@]5(C)[C@]3(C)C[C@H]4O)o2)cc(OC)c1OC`: on Alpha-glucosidase [2], the IC50 was more than 30 µM. In addition, the inhibition in series [3] is 49.1%.
Taken in the same sequence, the figures for `Cc1ccc(-n2cc(CNC(=O)[C@]34CCC(C)(C)C[C@H]3C3=CC[C@@H]5[C@@]6(C)CC[C@H](O)C(C)(C)[C@@H]6CC[C@@]5(C)[C@]3(C)C[C@H]4O)nn2)cc1` were 21.25 µM and 63%.
By Ki is commonly meant the equilibrium dissociation constant of an inhibitor or competing ligand from its target. Take `O=C(Cc1cccs1)N[C@@H]1C(=O)N2C(C(=O)O)=C(CSc3nc[nH]n3)CS[C@H]12` [CEFETRIZOLE]: the Ki on Alpha-glucosidase [6] was found to be 0.578 µM. For the same compound, the IC50 against Alpha-glucosidase [7] was found to be 2.1 µM.
At Alpha-glucosidase [2], `CC1(C)CC[C@]2(C(=O)OCC(=O)NCc3cn(-c4ccccc4)nn3)[C@H](O)C[C@]3(C)C(=CC[C@@H]4[C@@]5(C)CC[C@H](O)C(C)(C)[C@@H]5CC[C@]43C)[C@@H]2C1` yielded an IC50 of 21.7 µM. Further, the inhibition in series [3] was 59.9%.
On Alpha-glucosidase [2], `CC1(C)CC[C@]2(C(=O)OCC(=O)NCc3cn(-c4ccc(Br)cc4)nn3)[C@H](O)C[C@]3(C)C(=CC[C@@H]4[C@@]5(C)CC[C@H](O)C(C)(C)[C@@H]5CC[C@]43C)[C@@H]2C1` came in with an IC50 of 23.62 µM. Further, in series [3], the inhibition turned out to be 68%.
For the compound `COc1ccc(CC2(Cc3cn(-c4ccc(C)cc4)nn3)C(=O)OC(C)(C)OC2=O)cc1`, at Alpha-glucosidase [1], the IC50 was 4.63 µM.
In the case of `CC1(C)CC[C@]2(C(=O)O)[C@H](O)C[C@]3(C)C(=CC[C@@H]4[C@@]5(C)CC[C@H](O)C(C)(C)[C@@H]5CC[C@]43C)[C@@H]2C1`, the CC50 at 24 h in series [4] is 56.2 µM. The compound further registered an IC50 against Alpha-glucosidase [2] of 59.91 µM. Moreover, in series [5], the selectivity ratio was 0.94. For the same compound, the result in the series with Mus musculus was Active. Besides, the inhibition in series [3] came out at 18.4%.
Regarding `COc1ccc(-c2noc(COC(=O)[C@]34CCC(C)(C)C[C@H]3C3=CC[C@@H]5[C@@]6(C)CC[C@H](O)C(C)(C)[C@@H]6CC[C@@]5(C)[C@]3(C)C[C@H]4O)n2)cc1`, in series [4], the CC50 at 24 h came out at 38.5 µM. Besides, the IC50 against Alpha-glucosidase [2] was 3.41 µM. The selectivity ratio in series [5] is 11.3. The inhibition in series [3] came out at 94.8%.
On Alpha-glucosidase [2], `COc1ccc(-n2cc(CNC(=O)[C@]34CCC(C)(C)C[C@H]3C3=CC[C@@H]5[C@@]6(C)CC[C@H](O)C(C)(C)[C@@H]6CC[C@@]5(C)[C@]3(C)C[C@H]4O)nn2)cc1` registered a concentration for half-maximal inhibition (IC50) of more than 30 µM. Besides, the inhibition in series [3] was 48.5%.
`CC1(C)CC[C@]2(C(=O)OCc3nc(-c4ccc(Cl)c(Cl)c4)no3)[C@H](O)C[C@]3(C)C(=CC[C@@H]4[C@@]5(C)CC[C@H](O)C(C)(C)[C@@H]5CC[C@]43C)[C@@H]2C1` returned an IC50 against Alpha-glucosidase [2] of more than 30 µM. In series [3], the inhibition was 36.5%.
Take `CC1(C)CC[C@]2(C(=O)OCC(=O)NCc3cn(-c4ccc(Cl)c(Cl)c4)nn3)[C@H](O)C[C@]3(C)C(=CC[C@@H]4[C@@]5(C)CC[C@H](O)C(C)(C)[C@@H]5CC[C@]43C)[C@@H]2C1`: the CC50 at 24 h in series [4] was found to be 198 µM. The IC50 at Alpha-glucosidase [2] was determined as 3.4 µM. Moreover, the selectivity ratio in series [5] came out at 58.3. Further, the inhibition in series [3] came out at 87.3%.
`CC1(C)CC[C@]2(C(=O)OCc3nnc(-c4ccc(Cl)c(Cl)c4)o3)[C@H](O)C[C@]3(C)C(=CC[C@@H]4[C@@]5(C)CC[C@H](O)C(C)(C)[C@@H]5CC[C@]43C)[C@@H]2C1` had an IC50 against Alpha-glucosidase [2] of 17.25 µM. For the same compound, in series [3], the inhibition was 69.8%.
The corresponding values for `COc1cc(-n2cc(CNC(=O)[C@]34CCC(C)(C)C[C@H]3C3=CC[C@@H]5[C@@]6(C)CC[C@H](O)C(C)(C)[C@@H]6CC[C@@]5(C)[C@]3(C)C[C@H]4O)nn2)cc(OC)c1OC` are more than 30 µM and 6.67%.
Taken in the same sequence, the figures for `CC1(C)CC[C@]2(C(=O)OCc3nc(-c4ccccc4)no3)[C@H](O)C[C@]3(C)C(=CC[C@@H]4[C@@]5(C)CC[C@H](O)C(C)(C)[C@@H]5CC[C@]43C)[C@@H]2C1` were 26.2 µM and 58.3%.
On to `CC1(C)CC[C@]2(C(=O)OCCn3ncn(-c4ccc(Cl)cc4)c3=O)[C@H](O)C[C@]3(C)C(=CC[C@@H]4[C@@]5(C)CC[C@H](O)C(C)(C)[C@@H]5CC[C@]43C)[C@@H]2C1`, for which, at Alpha-glucosidase [2], the IC50 was 28.69 µM. For the same compound, the inhibition in series [3] is 47.7%.
`CC1(C)CC[C@]2(C(=O)OCC(=O)NCc3cn(-c4ccc(Cl)cc4)nn3)[C@H](O)C[C@]3(C)C(=CC[C@@H]4[C@@]5(C)CC[C@H](O)C(C)(C)[C@@H]5CC[C@]43C)[C@@H]2C1`: the IC50 against Alpha-glucosidase [2] is 18.18 µM. The inhibition in series [3] was found to be 63.3%.
On to `C[C@H]1O[C@H](O[C@H]2[C@H](O)[C@@H](O)[C@@H](O[C@H]3[C@H](O)[C@@H](O)C(O)O[C@@H]3CO)O[C@@H]2CO)[C@H](O)[C@@H](O)[C@@H]1N[C@H]1C=C(CO)[C@@H](O)[C@H](O)[C@H]1O` (some centres not stated), for which the result with Mus musculus was Active.
For the compound `CC1(C)CC[C@]2(C(=O)NCc3cn(-c4ccc(Cl)cc4)nn3)[C@H](O)C[C@]3(C)C(=CC[C@@H]4[C@@]5(C)CC[C@H](O)C(C)(C)[C@@H]5CC[C@]43C)[C@@H]2C1`, on Alpha-glucosidase [2], the IC50 was 21.19 µM. In series [3], the inhibition came out at 69.2%.
`CC1(C)CC[C@]2(C(=O)OCc3nnc(-c4ccc(Cl)cc4)o3)[C@H](O)C[C@]3(C)C(=CC[C@@H]4[C@@]5(C)CC[C@H](O)C(C)(C)[C@@H]5CC[C@]43C)[C@@H]2C1`: the IC50 against Alpha-glucosidase [2] is 21.94 µM. The inhibition in series [3] is 67.3%.
